From PMC12730265, “Combinatorial Antimicrobial Effects of Imidazolium-Based Ionic Liquids and Antifungals on Model Fungal Organisms” (Biomolecules, 2025)
pEC50: −log10 of the molar value. Where two headings read alike, the source gives them in different places. Values belong to the compound of their own block, whether it stands above or below them.

Tests used:
[1] = test system: HeLa cells; assay: Checkerboard cytotoxicity assay IL + Clotrimazole, CellTiter-Blue
Procedure: HeLa cells (Kyoto line) were grown at 37 °C in 5% CO2 using DMEM media with 4.5 g/L glucose + Sodium Pyruvate + L-Glutamine (VWRV02-0101) with 10% FBS. Antibiotics such as Pen/Strep were not used during treatment with ILs or AFs to exclude the possibility of interaction with other antibiotics. HeLa cells were grown to 70–90% confluency in T75 dishes; cells were dissociated with Trypsin/EDTA […] for 3 min and resuspended in 25 mL DMEM +10% FBS; 180 μL cells in media were added to each of the 96 wells on the plasma-treated culture plate and incubated at 37 °C overnight. Solutions of Clotrimazole plus either [HMIM]Cl and [OMIM]Cl were created and 20 μL of IL, AF, or IL + AF were added to 96-well plate and incubated at 37 °C for 24 h. Promega CellTiter-Blue Cell Viability reagent was used to evaluate cytotoxicity in accordance with the manufacturer’s guidelines. For each well, 20 μL of CellTiter-Blue was added and then the plates were incubated for either 1, 2, or 4 h and fluorescence was measured at Ex/EM 485/590 nm using a Biotek Synergy HT fluorometer Winooski, VT USA. EC50 and FIC calculations were performed using these treatments. EC50 calculations were performed using ATTB Bioquest online EC50 calculator and FIC scores were calculated as described in Doern et al..
One open question is whether addition of either of these ILs at sub-cytotoxic concentrations can improve effectiveness of AFs in fungi vs. mammalian cells. To evaluate this, we performed checkerboard assays for both [HMIM]Cl and [OMIM]Cl in the presence of Clotrimazole and calculated FIC scores as described in C. albicans checkerboard assays.

[2] = test system: S. cerevisiae; assay: MIC50 by microbroth dilution; format: cell-based; conditions: Saccharomyces cerevisiae
Procedure: (§1) A single colony was picked from each streak to prepare overnight in 5 mL fresh YPD broth and placed into a tilted rotating incubator set at 30 °C and 40 rpm overnight. After ~16–20 h, a fresh dilution in media (1:200) was made and used for the experiment. […] Finally, diluted culture was added to each well of a sterile 96-well plate containing serially diluted aliquots of each RTIL to a total volume of 100 µL. The plate was incubated at 30 °C overnight with shaking for 24 and 48 h. At both timepoints, the yeast was manually resuspended in the plate by pipetting and we measured the OD600 using a Spectramax M5 multimode plate reader (Molecular Devices, San Jose, CA, USA).
(§2) The four species of yeast tested included three common lab strains of non-pathogenic yeast strains, S. boulardii, S. cerevisiae, and S. pombe, and one common human pathogen, C. albicans.

[3] = test system: C. albicans; assay: MIC50 by microbroth dilution; format: cell-based; conditions: Candida albicans, 48 h
Procedure: as §1, §2

[4] = test system: S. boulardii; assay: MIC50 by microbroth dilution; format: cell-based; conditions: Saccharomyces cerevisiae
Procedure: as §1, §2

[5] = test system: S. pombe; assay: MIC50 by microbroth dilution; format: cell-based; conditions: Schizosaccharomyces pombe
Procedure: as §1, §2

[6] = test system: HeLa cells; assay: CellTiter-Blue cytotoxicity assay; format: cell-based, human; conditions: for pEC50: Homo sapiens, HeLa, read-out: EC50 (50% viability)
Procedure: EC50 and FIC calculations were performed using these treatments.
To understand the degree to which imidazolium chloride-based ILs of varying chain length are toxic to human cells, we treated HeLa cells with [HMIM]Cl or [OMIM]Cl with each of the four azole AFs for 24 h and evaluated cytotoxicity. Following 24 h of exposure in liquid culture at defined serial dilutions in a 96-well plate format, cells were evaluated for viability using CellTiter-Blue assay in which living cells can metabolize resazurin into resorufin, a fluorescent reporter molecule detected by plate spectroscopy. Consistent with findings for bacteria and yeast microorganisms, high concentrations of imidazolium chloride-based ILs are toxic to HeLa cells (Figure 6B). Moreover, HeLa cells treated with ILs with longer alkyl chain lengths [OMIM]Cl are less viable than when treated with [HMIM]Cl at the same final concentration. […] With respect to all four AFs, the degree of specificity for these drugs to fungi vs. human cells was clear (Figure 6B).

[7] = test system: C. albicans; assay: Kirby–Bauer disk diffusion assay on IL-containing YPD plates; format: cell-based
Procedure: Assessment of fungal growth on YPD plates with AFs + ILs served as an indicator for the combined efficacy of treatment of ILs and AFs. YPD agar plates were made with addition of increasing concentrations of [HMIM]Cl at 0, 2.5, 6.25, and 25 mM or [OMIM]Cl at 0, 0.25, 0.625, and 2.5 mM. Plates solidified and dried on bench for 24 h before use. IN total, 400 μL of S. cerevisiae or C. albicans liquid culture at mid-log phase OD600 0.5 was spread using sterile glass beads to achieve even distribution. Following addition of culture, the plates were allowed to dry for 30 min before the addition of antifungal disks. Antifungal-infused disks were prepared using the stock solutions of solubilized antibiotics; 15 μL of each of the 4 azole antifungals at stock concentrations was pipetted onto a sterile 6 mm cellulose disk (BD). […] After plate drying was complete, sterile forceps were used to transfer the disks to the media, and the plate was grown upright in an incubator overnight at 30 °C. The following day, photographs were taken of the plates to visualize the zone of inhibition (ZOI) created by the combined treatment. Adobe Illustrator 2023 CC was used to perform digital measurements of ZOI diameters.
To assess the potential for combinatorial effects of ILs and AFs in yeast, Kirby–Bauer disk diffusion assays were performed for C. albicans and S. cerevisiae for [HMIM]Cl and [OMIM]Cl with all four AFs. […] The addition of 6 mm cellulose disks infused with equal volumes of solubilized AFs to the plates occurred after plating of C. albicans or S. cerevisiae, allowing for growth for 48 h at 23 °C, at which point the plates were evaluated for the establishment of zones of inhibition (ZOI). Digital pictures were acquired of all plates, and measurements of ZOI diameter were performed digitally as described in the Methods. […] With progressively increasing amounts of both [HMIM]Cl and [OMIM]Cl, ZOIs increased for all Afs, including Fluconazole and Itraconazole, which appear to be ineffective without IL in the Kirby–Bauer disk assay. Experiments were performed in triplicate and ZOIs were measured for all plates.

[8] = 50% growth after 48 h in YPD media, OD600, read-out: MIC50

MIC50 [2, 8]: 0.625 mM
MIC50 [3, 8]: 3.12 mM
MIC50 [4, 8]: 0.625 mM
MIC50 [5, 8]: 1.25 mM
SMILES: CCCCCCCCn1cc[n+](C)c1.[Cl-] [[OMIM]Cl, 1-octyl-3-methylimidazolium chloride]
IL concentration used for FIC, IL alone ([1]; IL alone): 3.125 mM
Cell Titer Blue Assay plate reading ([1]; OMIM[Cl] 0.195312, Clotrimazole 0.03125 mg/mL): 553
Cell Titer Blue Assay plate reading ([1]; OMIM[Cl] 0.195312, Clotrimazole 0.0625 mg/mL): 506
Cell Titer Blue Assay plate reading ([1]; OMIM[Cl] 0.195312, Clotrimazole 0.125 mg/mL): 440
Cell Titer Blue Assay plate reading ([1]; OMIM[Cl] 0.195312, Clotrimazole 0.25 mg/mL): 135
Cell Titer Blue Assay plate reading ([1]; OMIM[Cl] 0.195312, Clotrimazole 0.5 mg/mL): 30
Cell Titer Blue Assay plate reading ([1]; OMIM[Cl] 0.195312, PBS instead of Clotrimazole): 524
Cell Titer Blue Assay plate reading ([1]; OMIM[Cl] 0.390625, Clotrimazole 0.03125 mg/mL): 343
Cell Titer Blue Assay plate reading ([1]; OMIM[Cl] 0.390625, Clotrimazole 0.0625 mg/mL): 333
Cell Titer Blue Assay plate reading ([1]; OMIM[Cl] 0.390625, Clotrimazole 0.125 mg/mL): 92
Cell Titer Blue Assay plate reading ([1]; OMIM[Cl] 0.390625, Clotrimazole 0.25 mg/mL): 161
Cell Titer Blue Assay plate reading ([1]; OMIM[Cl] 0.390625, Clotrimazole 0.5 mg/mL): 31
Cell Titer Blue Assay plate reading ([1]; OMIM[Cl] 0.390625, PBS instead of Clotrimazole): 533
Cell Titer Blue Assay plate reading ([1]; OMIM[Cl] 0.78125, Clotrimazole 0.03125 mg/mL): 128
Cell Titer Blue Assay plate reading ([1]; OMIM[Cl] 0.78125, Clotrimazole 0.0625 mg/mL): 121
Cell Titer Blue Assay plate reading ([1]; OMIM[Cl] 0.78125, Clotrimazole 0.125 mg/mL): 60
Cell Titer Blue Assay plate reading ([1]; OMIM[Cl] 0.78125, Clotrimazole 0.25 mg/mL): 66
Cell Titer Blue Assay plate reading ([1]; OMIM[Cl] 0.78125, Clotrimazole 0.5 mg/mL): 32
Cell Titer Blue Assay plate reading ([1]; OMIM[Cl] 0.78125, PBS instead of Clotrimazole): 180
Cell Titer Blue Assay plate reading ([1]; OMIM[Cl] 1.5625, Clotrimazole 0.03125 mg/mL): 126
Cell Titer Blue Assay plate reading ([1]; OMIM[Cl] 1.5625, Clotrimazole 0.0625 mg/mL): 45
Cell Titer Blue Assay plate reading ([1]; OMIM[Cl] 1.5625, Clotrimazole 0.125 mg/mL): 58
Cell Titer Blue Assay plate reading ([1]; OMIM[Cl] 1.5625, Clotrimazole 0.25 mg/mL): 33
Cell Titer Blue Assay plate reading ([1]; OMIM[Cl] 1.5625, Clotrimazole 0.5 mg/mL): 36
Cell Titer Blue Assay plate reading ([1]; OMIM[Cl] 1.5625, PBS instead of Clotrimazole): 206
Cell Titer Blue Assay plate reading ([1]; OMIM[Cl] 3.125, Clotrimazole 0.03125 mg/mL): 47
Cell Titer Blue Assay plate reading ([1]; OMIM[Cl] 3.125, Clotrimazole 0.0625 mg/mL): 37
Cell Titer Blue Assay plate reading ([1]; OMIM[Cl] 3.125, Clotrimazole 0.125 mg/mL): 36
Cell Titer Blue Assay plate reading ([1]; OMIM[Cl] 3.125, Clotrimazole 0.25 mg/mL): 36
Cell Titer Blue Assay plate reading ([1]; OMIM[Cl] 3.125, Clotrimazole 0.5 mg/mL): 38
Cell Titer Blue Assay plate reading ([1]; OMIM[Cl] 3.125, PBS instead of Clotrimazole): 47
Cell Titer Blue Assay plate reading ([1]; OMIM[Cl] 6.25, Clotrimazole 0.03125 mg/mL): 41
Cell Titer Blue Assay plate reading ([1]; OMIM[Cl] 6.25, Clotrimazole 0.0625 mg/mL): 38
Cell Titer Blue Assay plate reading ([1]; OMIM[Cl] 6.25, Clotrimazole 0.125 mg/mL): 39
Cell Titer Blue Assay plate reading ([1]; OMIM[Cl] 6.25, Clotrimazole 0.25 mg/mL): 39
Cell Titer Blue Assay plate reading ([1]; OMIM[Cl] 6.25, Clotrimazole 0.5 mg/mL): 40
Cell Titer Blue Assay plate reading ([1]; OMIM[Cl] 6.25, PBS instead of Clotrimazole): 41
Cell Titer Blue Assay plate reading ([1]; OMIM[Cl] 12.5, Clotrimazole 0.03125 mg/mL): 39
Cell Titer Blue Assay plate reading ([1]; OMIM[Cl] 12.5, Clotrimazole 0.0625 mg/mL): 39
Cell Titer Blue Assay plate reading ([1]; OMIM[Cl] 12.5, Clotrimazole 0.125 mg/mL): 38
Cell Titer Blue Assay plate reading ([1]; OMIM[Cl] 12.5, Clotrimazole 0.25 mg/mL): 37
Cell Titer Blue Assay plate reading ([1]; OMIM[Cl] 12.5, Clotrimazole 0.5 mg/mL): 40
Cell Titer Blue Assay plate reading ([1]; OMIM[Cl] 12.5, PBS instead of Clotrimazole): 38
pEC50 ([6]; 24 h exposure): 2.95

SMILES: CCCCCCn1cc[n+](C)c1.[Cl-] [[HMIM]Cl, 1-hexyl-3-methylimidazolium chloride]
IL concentration used for FIC, IL alone ([1]; human, 24 h): 12.5 mM
IL concentration used for FIC, in combination ([1]; human, 24 h): 12.5 mM
MIC50 ([2]; 48 h): 6.25 mM
MIC50 [3]: 25 mM
MIC50 ([4]; 48 h): 6.25 mM
MIC50 ([5]; 48 h): 6.25 mM
toxicity on HeLa cells ([6]; 1.563 mM [HMIM]Cl): low levels of toxicity
pEC50 ([6]; 24 h): 1.85

MIC50 [2, 8]: 1 µg/mL
MIC50 [3, 8]: 1 µg/mL
MIC50 [4, 8]: 1 µg/mL
MIC50 [5, 8]: 1 µg/mL
SMILES: Clc1ccccc1C(c1ccccc1)(c1ccccc1)n1ccnc1 [Clotrimazole]
Clotrimazole concentration used for FIC, alone ([1]; human, 24 h): 250 mg/L
Zone of inhibition (ZOI) diameter ([7]; [HMIM]Cl 0 mM in plate): 10 mm
Zone of inhibition (ZOI) diameter ([7]; [HMIM]Cl 2.5 mM in plate): 10.33 mm
Zone of inhibition (ZOI) diameter ([7]; [HMIM]Cl 6.25 mM in plate): 25.67 mm
Zone of inhibition (ZOI) diameter ([7]; [HMIM]Cl 25 mM in plate): 30.67 mm
Zone of inhibition (ZOI) diameter ([7]; [OMIM]Cl 0 M in plate): 10 mm
Zone of inhibition (ZOI) diameter ([7]; [OMIM]Cl 0.25 mM in plate): 11 mm
Zone of inhibition (ZOI) diameter ([7]; [OMIM]Cl 0.625 mM in plate): 23.33 mm
Zone of inhibition (ZOI) diameter ([7]; [OMIM]Cl 2.5 mM in plate): 44.67 mm
inhibition of C. albicans growth around disk ([7]; absence of added IL): minimal inhibition
